Reference: PMC8617944, “Preclinical Pharmacokinetics and Acute Toxicity in Rats of 5-{[(2E)-3-Bromo-3-carboxyprop-2-enoyl]amino}-2-hydroxybenzoic Acid: A Novel 5-Aminosalicylic Acid Derivative with Potent Anti-Inflammatory Activity” (Molecules, 2021)
Entries after “also recorded” stand apart in the source; their conditions may differ. Read-outs that look alike come from different tables or passages of the source.

Assay: Distribution of C1 in tissues
Type: in vivo, Wistar rats
Conditions: p.o. 75 mg/kg
Method: Fifteen male Wistar rats were distributed in five groups (n = 3) and rats were orally administered C1 at a single dose of 75 mg/kg. Subsequently, a group of animals was sacrificed (n = 3) at 10, 30, 90, 180, and 360 min. […] All tissues and organs were weighed on an analytical balance and immediately processed. Each tissue sample was homogenized with saline solution in a 1:3 (wt/v) ratio. The preparation process for analysis was the same as described above for plasma samples [57] (File S8).

## O=C(/C=C(/Br)C(=O)O)Nc1ccc(O)c(C(=O)O)c1 [Compound C1, 5-{[(2E)-3-bromo-3-carboxyprop-2-enoyl]amino}-2-hydroxybenzoic acid]
male, Wistar, rat, heart, po, 75 mg/kg, Hearth, 3 h, n = 3, read-out: Average Concentration
  concentration at 3 h: 2.9 µg/mL
male, Wistar, rat, heart, po, 75 mg/kg, Hearth, 6 h, n = 3, read-out: Average Concentration
  concentration at 6 h: 2.7 µg/mL
male, Wistar, rat, heart, po, 75 mg/kg, Hearth, individual rats, read-out: Concentration (µg/mL) at 30 minutes, Rat 1-3
  concentration at 30 min: 3.8 µg/mL
male, Wistar, rat, heart, po, 75 mg/kg, Hearth, individual rats, read-out: Concentration (µg/mL) at 90 minutes, Rat 1-3
  concentration at 90 min: 2.7 µg/mL
male, Wistar, rat, heart, po, 75 mg/kg, Hearth, individual rats, read-out: Concentration (µg/mL) at 3 h, Rat 1-3
  concentration at 3 h: 2.5 µg/mL
male, Wistar, rat, heart, po, 75 mg/kg, Hearth, individual rats, read-out: Concentration (µg/mL) at 6 h, Rat 1-3
  concentration at 6 h: 2.4 µg/mL
male, Wistar, rat, kidney, po, 75 mg/kg, Kidney, 10 min, n = 3, read-out: Average Concentration
  concentration at 10 min: 16 µg/mL
male, Wistar, rat, kidney, po, 75 mg/kg, Kidney, 30 min, n = 3, read-out: Average Concentration
  concentration at 30 min: 6.9 µg/mL
male, Wistar, rat, kidney, po, 75 mg/kg, Kidney, 90 min, n = 3, read-out: Average Concentration
  concentration at 90 min: 4.8 µg/mL
male, Wistar, rat, kidney, po, 75 mg/kg, Kidney, 3 h, n = 3, read-out: Average Concentration
  concentration at 3 h: 4.7 µg/mL
male, Wistar, rat, kidney, po, 75 mg/kg, Kidney, 6 h, n = 3, read-out: Average Concentration
  concentration at 6 h: 4.1 µg/mL
male, Wistar, rat, kidney, po, 75 mg/kg, Kidney, individual rats, read-out: Concentration (µg/mL) at 30 minutes, Rat 1-3
  concentration at 30 min: 6.1 µg/mL
male, Wistar, rat, kidney, po, 75 mg/kg, Kidney, individual rats, read-out: Concentration (µg/mL) at 90 minutes, Rat 1-3
  concentration at 90 min: 3.6 µg/mL
male, Wistar, rat, liver, po, 75 mg/kg, Liver, 10 min, n = 3, read-out: Average Concentration
  concentration at 10 min: 4.6 µg/mL
male, Wistar, rat, liver, po, 75 mg/kg, Liver, 30 min, n = 3, read-out: Average Concentration
  concentration at 30 min: 6.4 µg/mL
male, Wistar, rat, liver, po, 75 mg/kg, Liver, 90 min, n = 3, read-out: Average Concentration
  concentration at 90 min: 4.4 µg/mL
male, Wistar, rat, liver, po, 75 mg/kg, Liver, 3 h, n = 3, read-out: Average Concentration
  concentration at 3 h: 4.9 µg/mL
male, Wistar, rat, liver, po, 75 mg/kg, Liver, 6 h, n = 3, read-out: Average Concentration
  concentration at 6 h: 4.2 µg/mL
male, Wistar, rat, liver, po, 75 mg/kg, Liver, individual rats, read-out: Concentration (µg/mL) at 10 minutes, Rat 1-3
  concentration at 10 min: 4.4 µg/mL
male, Wistar, rat, liver, po, 75 mg/kg, Liver, individual rats, read-out: Concentration (µg/mL) at 30 minutes, Rat 1-3
  concentration at 30 min: 5.8 µg/mL
male, Wistar, rat, lung, po, 75 mg/kg, Lung, 10 min, n = 3, read-out: Average Concentration
  concentration at 10 min: 15.7 µg/mL
male, Wistar, rat, lung, po, 75 mg/kg, Lung, 30 min, n = 3, read-out: Average Concentration
  concentration at 30 min: 10.7 µg/mL
male, Wistar, rat, lung, po, 75 mg/kg, Lung, 90 min, n = 3, read-out: Average Concentration
  concentration at 90 min: 7.4 µg/mL
male, Wistar, rat, lung, po, 75 mg/kg, Lung, 3 h, n = 3, read-out: Average Concentration
  concentration at 3 h: 7.2 µg/mL
male, Wistar, rat, lung, po, 75 mg/kg, Lung, 6 h, n = 3, read-out: Average Concentration
  concentration at 6 h: 6.3 µg/mL
male, Wistar, rat, muscle, po, 75 mg/kg, Muscle, 10 min, n = 3, read-out: Average Concentration
  concentration at 10 min: 4.7 µg/mL
male, Wistar, rat, muscle, po, 75 mg/kg, Muscle, 30 min, n = 3, read-out: Average Concentration
  concentration at 30 min: 3.8 µg/mL
male, Wistar, rat, muscle, po, 75 mg/kg, Muscle, 90 min, n = 3, read-out: Average Concentration
  concentration at 90 min: 3.3 µg/mL
male, Wistar, rat, muscle, po, 75 mg/kg, Muscle, 3 h, n = 3, read-out: Average Concentration
  concentration at 3 h: 2.7 µg/mL
male, Wistar, rat, muscle, po, 75 mg/kg, Muscle, 6 h, n = 3, read-out: Average Concentration
  concentration at 6 h: 2.5 µg/mL
male, Wistar, rat, muscle, po, 75 mg/kg, Muscle, individual rats, read-out: Concentration (µg/mL) at 10 minutes, Rat 1-3
  concentration at 10 min: 4.8 µg/mL
male, Wistar, rat, muscle, po, 75 mg/kg, Muscle, individual rats, read-out: Concentration (µg/mL) at 30 minutes, Rat 1-3
  concentration at 30 min: 3.4 µg/mL
male, Wistar, rat, muscle, po, 75 mg/kg, Muscle, individual rats, read-out: Concentration (µg/mL) at 90 minutes, Rat 1-3
  concentration at 90 min: 3.2 µg/mL
male, Wistar, rat, muscle, po, 75 mg/kg, Muscle, individual rats, read-out: Concentration (µg/mL) at 3 h, Rat 1-3
  concentration at 3 h: 3 µg/mL
male, Wistar, rat, po, rats, read-out: time of maximum concentration in tissues and organs (converted)
  Tmax: 10 min
male, Wistar, rat, small intestine, po, 75 mg/kg, Small intestine, 10 min, n = 3, read-out: Average Concentration
  concentration at 10 min: 31.6 µg/mL
male, Wistar, rat, small intestine, po, 75 mg/kg, Small intestine, 30 min, n = 3, read-out: Average Concentration
  concentration at 30 min: 15.7 µg/mL
male, Wistar, rat, small intestine, po, 75 mg/kg, Small intestine, 90 min, n = 3, read-out: Average Concentration
  concentration at 90 min: 15.8 µg/mL
male, Wistar, rat, small intestine, po, 75 mg/kg, Small intestine, 3 h, n = 3, read-out: Average Concentration
  concentration at 3 h: 14.8 µg/mL
male, Wistar, rat, small intestine, po, 75 mg/kg, Small intestine, 6 h, n = 3, read-out: Average Concentration
  concentration at 6 h: 10.1 µg/mL
male, Wistar, rat, small intestine, po, 75 mg/kg, Small intestine, individual rats, read-out: Concentration (µg/mL) at 90 minutes, Rat 1-3
  concentration at 90 min: 15.1 µg/mL
male, Wistar, rat, small intestine, po, 75 mg/kg, Small intestine, individual rats, read-out: Concentration (µg/mL) at 3 h, Rat 1-3
  concentration at 3 h: 14.2 µg/mL
male, Wistar, rat, small intestine, po, 75 mg/kg, Small intestine, individual rats, read-out: Concentration (µg/mL) at 6 h, Rat 1-3
  concentration at 6 h: 9.1 µg/mL
male, Wistar, rat, spleen, po, 75 mg/kg, Spleen, 10 min, n = 3, read-out: Average Concentration
  concentration at 10 min: 31.8 µg/mL
male, Wistar, rat, spleen, po, 75 mg/kg, Spleen, 30 min, n = 3, read-out: Average Concentration
  concentration at 30 min: 17.2 µg/mL
male, Wistar, rat, spleen, po, 75 mg/kg, Spleen, 90 min, n = 3, read-out: Average Concentration
  concentration at 90 min: 11.7 µg/mL
male, Wistar, rat, spleen, po, 75 mg/kg, Spleen, 3 h, n = 3, read-out: Average Concentration
  concentration at 3 h: 8.7 µg/mL
male, Wistar, rat, spleen, po, 75 mg/kg, Spleen, 6 h, n = 3, read-out: Average Concentration
  concentration at 6 h: 7.8 µg/mL
male, Wistar, rat, spleen, po, 75 mg/kg, Spleen, individual rats, read-out: Concentration (µg/mL) at 10 minutes, Rat 1-3
  concentration at 10 min: 30 µg/mL
male, Wistar, rat, spleen, po, 75 mg/kg, Spleen, individual rats, read-out: Concentration (µg/mL) at 30 minutes, Rat 1-3
  concentration at 30 min: 21 µg/mL
male, Wistar, rat, stomach, po, 75 mg/kg, Stomach, 10 min, n = 3, read-out: Average Concentration
  concentration at 10 min: 18.3 µg/mL
male, Wistar, rat, stomach, po, 75 mg/kg, Stomach, 30 min, n = 3, read-out: Average Concentration
  concentration at 30 min: 10.2 µg/mL
male, Wistar, rat, stomach, po, 75 mg/kg, Stomach, 90 min, n = 3, read-out: Average Concentration
  concentration at 90 min: 7.9 µg/mL
male, Wistar, rat, stomach, po, 75 mg/kg, Stomach, 3 h, n = 3, read-out: Average Concentration
  concentration at 3 h: 6.4 µg/mL
male, Wistar, rat, stomach, po, 75 mg/kg, Stomach, 6 h, n = 3, read-out: Average Concentration
  concentration at 6 h: 4.7 µg/mL
male, Wistar, rat, testis, po, 75 mg/kg, Testis, 10 min, n = 3, read-out: Average Concentration
  concentration at 10 min: 9.9 µg/mL
male, Wistar, rat, testis, po, 75 mg/kg, Testis, 30 min, n = 3, read-out: Average Concentration
  concentration at 30 min: 3.8 µg/mL
male, Wistar, rat, testis, po, 75 mg/kg, Testis, 90 min, n = 3, read-out: Average Concentration
  concentration at 90 min: 4 µg/mL
male, Wistar, rat, testis, po, 75 mg/kg, Testis, 3 h, n = 3, read-out: Average Concentration
  concentration at 3 h: 3 µg/mL
male, Wistar, rat, testis, po, 75 mg/kg, Testis, 6 h, n = 3, read-out: Average Concentration
  concentration at 6 h: 3.1 µg/mL
male, Wistar, rat, testis, po, 75 mg/kg, Testis, individual rats, read-out: Concentration (µg/mL) at 30 minutes, Rat 1-3
  concentration at 30 min: 4 µg/mL
male, Wistar, rat, testis, po, 75 mg/kg, Testis, individual rats, read-out: Concentration (µg/mL) at 3 h, Rat 1-3
  concentration at 3 h: 3.1 µg/mL
male, Wistar, rat, testis, po, 75 mg/kg, Testis, individual rats, read-out: Concentration (µg/mL) at 6 h, Rat 1-3
  concentration at 6 h: 2.1 µg/mL
rats, 75 mg/kg
  crossing of blood-brain barrier and hemato-testicular barrier: able to cross the blood-brain barrier and hemato-testicular barrier; also recorded: crossed the hemato-encephalic barrier
